Patent publication US7071188B2 (priority 2001, dated 2006)

Key:
Fusarium (FFUSARGRAMI) = experiment: Seed treatment test for field corn and sweet corn, in-furrow Fusarium inoculation (Example 1); format: in vivo, Fusarium on corn variety H-8874RR; settings: rates gai/100 kg: Apron XL 3LS 1, Maxim XL 3.5, CGA-301940 2.5, CAPTAN 55 + Allegiance-FL 2
Excerpt: (§1) Seed Treatment Test for Field Corn and Sweet Corn

[1] = tested on: natural disease pressure on corn variety N58-D1; experiment: Seed treatment test for field corn and sweet corn, no inoculation, natural disease pressure (Example 2); format: in vivo; settings: rates gai/100 kg: Apron XL 3LS 1, Maxim XL 3.5, CGA-301940 2.5, CAPTAN 55 + Allegiance-FL 2
Excerpt: as §1

## CO/C=C(/C(=O)OC)c1ccccc1Oc1cc(Oc2ccccc2C#N)ncn1 [CGA-301940, Azoxystrobin]
Fusarium (FFUSARGRAMI); 27 DAP, vs Check (inoculated)
  Stand Count percent increase (27 DAP): −10.3%
Fusarium (FFUSARGRAMI); 27 DAP
  Stand Count (No Plants/Plot) 27 DAP: 13.0b No Plants/Plot
Fusarium (FFUSARGRAMI); 47 DAP, vs Check (inoculated)
  % Vigor percent increase (47 DAP): 6.6%
  Stand Count percent increase (47 DAP): 9.8%
Fusarium (FFUSARGRAMI); 47 DAP
  % Vigor 47 DAP: 80.0a %
  Stand Count (No Plants/Plot) 47 DAP: 42.3d No Plants/Plot
[1]; 33 DAP, vs Check (non-inoculated)
  Stand Count percent increase (33 DAP): 4.5%
[1]; 33 DAP
  Stand Count (No Plants/Plot) 33 DAP: 46.5c No Plants/Plot
[1]; 49 DAP, vs Check (non-inoculated)
  Stand Count percent increase (49 DAP): 6.0%
[1]; 49 DAP
  Stand Count (No Plants/Plot) 49 DAP: 52.8c No Plants/Plot
